Source: PubChem BioAssay (NCI)
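Exposure lasted 48 hours, with cells grown in 96-well plates and compounds tested at five concentrations. At the GI50, growth is halved. TGI: total growth inhibition.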

Key:
Assay in all cases: inhibition of tumour cell growth, NCI panel, 48 h
ACHN renal = tested on: ACHN renal
BT-549 breast = tested on: BT-549 breast
SK-OV-3 ovarian = tested on: SK-OV-3 ovarian
A498 renal = tested on: A498 renal
HCC-2998 colon = tested on: HCC-2998 colon
SK-MEL-2 melanoma = tested on: SK-MEL-2 melanoma
NCI-H226 lung = tested on: NCI-H226 lung
HCT-116 colon = tested on: HCT-116 colon
A549 NSCLC = tested on: A549 NSCLC
MALME-3M melanoma = tested on: MALME-3M melanoma

| SMILES | TGI (ACHN renal) [µM] | TGI (BT-549 breast) [µM] | TGI (SK-OV-3 ovarian) [µM] | TGI (A498 renal) [µM] | TGI (HCC-2998 colon) [µM] | TGI (SK-MEL-2 melanoma) [µM] | TGI (NCI-H226 lung) [µM] | TGI (HCT-116 colon) [µM] | TGI (A549 NSCLC) [µM] | GI50 (A549 NSCLC) [µM] | TGI (MALME-3M melanoma) [µM] |
| --- | --- | --- | --- | --- | --- | --- | --- | --- | --- | --- | --- |
| O=C(c1ccccc1)c1ccc2nc(-c3c(Cl)c(Cl)c(Cl)c(Cl)c3C(=O)Nc3ccco3)[nH]c2c1 | > 100 | 74 | > 100 | 92.2 | 53.1 | 80.4 | > 100 | > 100 | > 100 | – | – |
| COc1ccc2c3c([nH]c2c1)-c1nc2ccccc2c(=O)n1CC3 | > 25 | – | > 25 | – | > 25 | – | – | > 25 | > 25 | 0.754 | – |
| Cc1cccc(=O)c([O-])c1.Cc1cccc(=O)c([O-])c1.Cc1cccc(=O)c([O-])c1.Cc1cccc(=O)c([O-])c1.[Th+4] | > 100 | – | > 100 | 81.6 | > 100 | 97.5 | > 100 | 35 | > 100 | – | > 100 |
| COc1c(-c2ccc(F)cc2)oc2cc(O)cc(O)c2c1=O | 93.4 | – | > 100 | > 100 | 31.9 | 64.3 | – | > 100 | > 100 | – | 61.1 |
| O=[N+]([O-])c1cccc([N+](=O)[O-])c1Cl | 31.4 | – | – | 38.8 | – | 43.9 | 68.4 | > 100 | 30 | – | 34.7 |
| COc1ccccc1NC(=O)CSC(N)=O | > 100 | – | > 100 | > 100 | > 100 | 61.4 | > 100 | 36.6 | > 100 | – | > 100 |
| O=C1CCc2cc3c(cc21)C(C(=O)O)CC3 (stereo not given) | > 100 | > 100 | > 100 | – | > 100 | > 100 | > 100 | > 100 | > 100 | – | > 100 |
| O=C1c2ccccc2C2(c3ccc(Cl)cc3)N[C@@H]3CCCC[C@@H]3N12 (stereo not given in full) | > 100 | > 100 | > 100 | > 100 | > 100 | > 100 | > 100 | > 100 | > 100 | – | – |
| COC(CC1(CCNc2ccccc2)C(=O)N(COCC[Si](C)(C)C)c2ccccc21)OC (stereo not given) | 37.1 | 32.5 | 30 | 47.5 | 4.12 | 29.9 | 21.4 | 32.5 | 34.3 | – | – |
| COc1ccc(OC)c(-c2cn3c(n2)sc2ccccc23)c1 | > 100 | > 100 | > 100 | – | – | > 100 | > 100 | > 100 | > 100 | – | > 100 |
| C/C(=C\COP(=O)(O)OP(=O)(O)O)CC/C=C(\C)CNc1ccccc1 | > 50 | 44.5 | > 50 | – | – | > 50 | > 50 | > 50 | > 50 | – | – |
| CCn1c(O)c(C(=O)NC(C)c2ccc([N+](=O)[O-])cc2)c(=O)n(CC)c1=S (stereo not given) | 11.2 | 8.8 | 7.38 | – | 10.7 | 2.72 | 11.9 | 4.45 | 11.5 | – | – |
| COc1ccc(C2C3=CONC3CC3CCCCC32)cc1 (stereo not given) | > 100 | > 100 | – | – | 47.3 | > 100 | > 100 | > 100 | > 100 | – | > 100 |
| O=C(NCCNCCO)N/N=C/c1ccccc1 | > 100 | – | > 100 | – | – | > 100 | > 100 | > 100 | > 100 | – | > 100 |
| Cc1c(Cl)c(=O)oc2cc(OCC(O)COC(C)C)ccc12 (stereo not given) | > 100 | – | > 100 | – | 37.3 | 58.2 | – | > 100 | > 100 | – | 35.8 |
| Cn1c(O)c(/C=N/c2ncccn2)c(=O)[nH]c1=O | > 100 | – | > 100 | > 100 | – | > 100 | > 100 | > 100 | > 100 | – | > 100 |
| CC1Cc2c(cc(N)nc2Br)NC1=O (stereo not given) | > 100 | > 100 | > 100 | – | > 100 | > 100 | > 100 | > 100 | > 100 | – | > 100 |
| Cc1ccc(C(=O)NN=C(/N=N/c2cccc(C)c2)c2ccc(N(C)C)cc2)cc1 | > 100 | > 100 | > 100 | – | > 100 | > 100 | > 100 | > 100 | > 100 | – | – |
